Biological target: T1, FOYE (Old Yellow Enzyme from Ferrovum sp. JA12) (Ferrovum sp., UniProt Z9U1E9MGE1)
T1 construct: pET-28a(+), N-terminal 6xHis tag with thrombin site (removal not described; two tag residues visible in crystal); E. coli BL21(DE3) Star pLysS; homotetramer
T1 sequence (Z9U1E9MGE1 20-373): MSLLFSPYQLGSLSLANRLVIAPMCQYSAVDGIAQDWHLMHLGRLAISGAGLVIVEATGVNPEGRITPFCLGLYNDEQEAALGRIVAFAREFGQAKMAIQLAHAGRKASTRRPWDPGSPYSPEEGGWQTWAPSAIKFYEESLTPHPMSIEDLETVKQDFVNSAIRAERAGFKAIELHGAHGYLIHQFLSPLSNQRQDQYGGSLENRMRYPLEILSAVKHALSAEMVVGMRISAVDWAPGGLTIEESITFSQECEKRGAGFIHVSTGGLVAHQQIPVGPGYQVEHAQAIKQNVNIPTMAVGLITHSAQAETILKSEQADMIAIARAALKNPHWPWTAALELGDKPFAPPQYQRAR
Experiment: X-ray crystal structure
Type: binding
Settings: co-purified cofactor, present in all four protomers; crystals from Morpheus II condition E4, 20°C

**Q.** Which X-ray crystal structure does the source give for `Cc1cc2nc3c(=O)[nH]c(=O)nc-3n(C[C@H](O)[C@H](O)[C@H](O)COP(=O)(O)O)c2cc1C` [FMN] here?
**A.** The X-ray crystal structure was “The electron density for the FMN is clearly visible in all the protomers”.

Source: PMC12046209, “Structure, Oligomerization, and Thermal Stability of a Recently Discovered Old Yellow Enzyme” (Proteins, 2025)
